Values quoted from earlier work in patent publication US10555523B2, “Self indicating antimicrobial chemistry” (ECOLAB USA INC, priority 2015, dated 2020).

System: microorganisms

SMILES: CC(=O)OO [Peracetic acid]
- concentration needed for biocidal activity: greater than 80 part per million
